From paper PMC9850959 (European journal of medicinal chemistry, 2019)
Entries after “also recorded” stand apart in the source; their conditions may differ. Structures can show the parent of a compound that is named as a salt. Blank lines part the entries; values can stand above or below the compound they belong to.

Key:
[1] = cited from earlier work
[2] = cited from earlier work; remark: listed apart in the source
human nSMase2 = biological target: T1, human nSMase2 (Homo sapiens, UniProt Q9NY59); experiment: fluorescence-based coupled nSMase2 assay; format: biochemical; details: for nSMase2 inhibitory activity (in words): compared with DPTIP or parent analog
T1 sequence (Q9NY59 1-655): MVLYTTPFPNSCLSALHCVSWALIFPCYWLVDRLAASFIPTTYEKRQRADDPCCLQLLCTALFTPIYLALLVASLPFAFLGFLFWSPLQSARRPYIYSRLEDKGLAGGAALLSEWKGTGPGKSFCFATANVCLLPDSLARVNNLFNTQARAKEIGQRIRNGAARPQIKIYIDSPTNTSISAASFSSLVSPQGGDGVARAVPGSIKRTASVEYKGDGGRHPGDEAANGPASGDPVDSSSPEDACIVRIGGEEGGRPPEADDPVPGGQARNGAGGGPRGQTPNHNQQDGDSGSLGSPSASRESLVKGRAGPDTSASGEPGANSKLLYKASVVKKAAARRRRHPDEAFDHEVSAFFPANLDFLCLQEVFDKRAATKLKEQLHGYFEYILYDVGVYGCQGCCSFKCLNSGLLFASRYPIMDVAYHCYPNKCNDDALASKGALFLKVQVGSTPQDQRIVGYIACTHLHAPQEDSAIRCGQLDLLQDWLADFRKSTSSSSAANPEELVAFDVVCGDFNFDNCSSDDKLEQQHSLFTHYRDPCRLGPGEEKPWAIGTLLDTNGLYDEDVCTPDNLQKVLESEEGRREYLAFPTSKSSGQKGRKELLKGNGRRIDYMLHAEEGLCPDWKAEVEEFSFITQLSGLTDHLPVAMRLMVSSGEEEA

[3] = tested on: AP, choline oxidase, and horseradish peroxidase; experiment: counter screen assay without nSMase2 and sphingomyelin, with phosphorylcholine; format: biochemical
[4] = glucuronidation stability in mouse liver microsomes in the presence of UDPGA; format: in vitro ADME
[5] = phase I metabolic stability in mouse liver microsomes; format: in vitro ADME
[6] = phase I metabolic stability in human liver microsomes; format: in vitro ADME
[7] = oral pharmacokinetics in mice; format: in vivo
nSMase2 = details: with respect to sphingomyelin; cited from earlier work
[8] = tested on: primary astrocyte cultures; details: cited from earlier work
[9] = tested on: IL-1β-induced astrocyte-derived extracellular vesicle release; details: GFAP-GFP mice, brain injury model; cited from earlier work

Compound: O=c1[nH]c(=S)[nH]c(-c2ccccc2)c1Cc1c(O)ccc2ccccc12 [Cambinol]
solubility compared to GW4869 (in words) [1]: better solubility compared to GW4869
metabolic stability (in words) [2]: metabolically unstable

loss of inhibitory potency relative to DPTIP (human nSMase2): 10 fold
Compound: COc1cc(-c2ncc[nH]2)cc(OC)c1O [Compound 3a, 4-(1H-Imidazol-2-yl)-2,6-dimethoxyphenol]

loss of inhibitory potency relative to DPTIP (human nSMase2): 100 fold
inhibition in the counter assay (in words) [3]: no longer distinguishable
Compound: Oc1ccc(-c2nc(-c3ccccc3)c(-c3cccs3)[nH]2)cc1 [Compound 6b, 4-(4-Phenyl-5-(thiophen-2-yl)-1H-imidazol-2-yl)phenol]

inhibition in the counter assay (in words) [3]: potent inhibition
Compound: COc1cc(-c2nc(-c3ccccc3)c(-c3cccs3)[nH]2)cc(O)c1O [Compound 6c, 3-Methoxy-5-(4-phenyl-5-(thiophen-2-yl)-1H-imidazol-2-yl)benzene-1,2-diol]

inhibition in the counter assay (in words) [3]: potent inhibition
Compound: Oc1cc(-c2nc(-c3ccccc3)c(-c3cccs3)[nH]2)cc(O)c1O [Compound 6d, 5-(4-Phenyl-5-(thiophen-2-yl)-1H-imidazol-2-yl)benzene-1,2,3-triol]

nSMase2 inhibitory activity (in words) (human nSMase2): complete loss of activity
Compound: Oc1c(Cl)cc(-c2nc(-c3ccccc3)c(-c3cccs3)[nH]2)cc1Cl [Compound 6e, 2,6-Dichloro-4-(4-phenyl-5-(thiophen-2-yl)-1H-imidazol-2-yl)phenol]

nSMase2 inhibitory activity (in words) (human nSMase2): completely inactive
Compound: COc1cc(-c2nc(-c3ccccc3)c(-c3cccs3)[nH]2)cc(OC)c1OC [Compound 6g]

nSMase2 inhibitory activity (in words) (human nSMase2): complete loss of potency
Compound: Oc1ccccc1-c1nc(-c2ccccc2)c(-c2cccs2)[nH]1 [Compound 6i]

nSMase2 inhibitory activity (in words) (human nSMase2): complete loss of potency
Compound: Oc1cccc(-c2nc(-c3ccccc3)c(-c3cccs3)[nH]2)c1 [Compound 6j]

Compound: CC(C)Oc1cc(-c2nc(-c3ccccc3)c(-c3cccs3)[nH]2)cc(OC(C)C)c1O [Compound 9b, 2,6-Diisopropoxy-4-(4-phenyl-5-(thiophen-2-yl)-1H-imidazol-2-yl)phenol]
resistance to glucuronidation (in words) ([4]; mouse liver microsomes, UDPGA): completely resistant to glucuronidation; also recorded: complete resistance to glucuronidation

nSMase2 inhibitory activity (in words) (human nSMase2): decrease in potency
Compound: Oc1c(OC2CCCC2)cc(-c2nc(-c3ccccc3)c(-c3cccs3)[nH]2)cc1OC1CCCC1 [Compound 9c, 2,6-Bis(cyclopentyloxy)-4-(5-phenyl-4-(thiophen-2-yl)-1H-imidazol-2-yl)phenol]

Compound: Oc1c(OCC(F)(F)F)cc(-c2nc(-c3ccccc3)c(-c3cccs3)[nH]2)cc1OCC(F)(F)F [Compound 12, 4-(4-Phenyl-5-(thiophen-2-yl)-1H-imidazol-2-yl)-2,6-bis(2,2,2-trifluoroethoxy)phenol]
phase I metabolic stability (in words) [5]: metabolic stability was completely regained
phase I metabolic stability (in words) [6]: metabolic stability was completely regained

Compound: CC(C)(C)Oc1cc(-c2nc(-c3ccccc3)c(-c3cccs3)[nH]2)cc(OC(C)(C)C)c1O [Compound 16, 2,6-Di-t-butoxy-4-(4-phenyl-5-(thiophen-2-yl)-1H-imidazol-2-yl)phenol]
nSMase2 inhibitory activity (in words) (human nSMase2): decrease in potency

nSMase2 inhibitory activity (in words) (human nSMase2): substantial decrease in potency
Compound: COc1cc(-c2nccs2)cc(OC)c1O [Compound 19, 2,6-Dimethoxy-4-(thiazol-2-yl)phenol]

nSMase2 inhibitory activity (in words) (human nSMase2): complete loss of potency
Compound: COc1cc(C2=NCCN2)cc(OC)c1O [Compound 22, 4-(4,5-Dihydro-1H-imidazol-2-yl)-2,6-dimethoxyphenol hydrochloride]

phase I metabolic stability (in words) [5]: metabolically stable
phase I metabolic stability (in words) [6]: metabolically stable
remaining at 1 h ([4]; mouse, liver microsomes, pH 7.5): < 20%
major metabolite in plasma ([7]; mouse plasma after oral administration): glucuronide
CNS penetration (in words) ([7]; oral, mice): negligible CNS penetration
Compound: COc1cc(-c2nc(C(C)C)c(C(C)C)[nH]2)cc(OC)c1O [Compound 25b, 4-(4,5-Diisopropyl-1H-imidazol-2-yl)-2,6-dimethoxyphenol hydrochloride]
plasma exposure compared to DPTIP (in words) ([7]; oral administration, mice): higher plasma exposure; also recorded: superior plasma pharmacokinetics

phase I metabolic stability (in words) [5]: stable
phase I metabolic stability (in words) [6]: stable
loss of the parent compound ([4]; mouse liver microsomes, UDPGA, 1 h): 33%
Compound: COc1cc(-c2nc(-c3cccs3)c(-c3ccccc3)[nH]2)cc(OC)c1O [DPTIP, 2,6-dimethoxy-4-[4-phenyl-5-(2-thienyl)-1H-imidazol-2-yl]phenol]
mechanism of inhibition (nSMase2): noncompetitive
extracellular vesicle release (in words) [8]: dose-dependently inhibit extracellular vesicle release
IL-1β-induced astrocyte-derived extracellular vesicle release (in words) [9]: attenuate

Compound: O=C(/C=C\c1ccc(/C=C\C(=O)Nc2ccc(C3=NCCN3)cc2)cc1)Nc1ccc(C2=NCCN2)cc1 [GW4869]
aqueous solubility (in words) [1]: negligible aqueous solubility
